This is an account of results in US4517181A, “Mammalian PGRF” (The Salk Institute for Biological Studies, priority 1982, dated 1985).

This assay concerns cells of rat pituitary glands. The experiment in a line: in vitro GH release, rat pituitary cell monolayer culture bioassay (ir GH by radioimmunoassay). Format: cell-based. Conditions: for biological potency (additional testing): compared with PGRF (1-40); for GH-releasing activity: peptides isolated from human islet cell tumor. As to the method: To determine the effectiveness of the peptides to promote the release of growth hormone, in vitro assays are carried out using synthetic PGRF (1-40) of Example II in side-by-side comparison with equimolar concentrations of the extracted and purified native PGRF (1-40) and of a GRF Reference Standard having a known effectiveness to promote the release of growth hormone from pituitary cells. The GRF Reference standard is described and defined in Brazeau, et al., Endocrinology, Vol. 110, A538(1982) and is an amount of a preparation of rat hypothalamic origin that produces a half-maximal response in terms of GH release in a pituitary cell monolayer bioassay. Cultures are used which include cells of rat pituitary glands removed some four to five days previously. Both cultures of a defined standard medium and cultures which are considered optimal for the secretion of growth hormone are used for the comparative testing, in the general manner described in Brazeau, et al. Regulatory Peptides, 1, 255, 1981. Incubation with the substance to be tested is carried out for 3 to 4 hours, and aliquots of the culture medium are removed and processed to measure their contents in inmunoreactive GH(ir GH) by a well-characterized radioimmunoassay.
The in vitro assays described in Example VII are repeated using Native PGRF(1-40) and Native PGRF(1-44) and the results are set forth in following Table III: […]

For the compound `CC[C@H](C)[C@H](NC(=O)[C@H](C)NC(=O)[C@H](CC(=O)O)NC(=O)[C@H](C)NC(=O)[C@@H](N)Cc1ccc(O)cc1)C(=O)N[C@@H](Cc1ccccc1)C(=O)N[C@H](C(=O)N[C@@H](CC(N)=O)C(=O)N[C@@H](CO)C(=O)N[C@@H](Cc1ccc(O)cc1)C(=O)N[C@@H](CCCNC(=N)N)C(=O)N[C@@H](CCCCN)C(=O)N[C@H](C(=O)N[C@@H](CC(C)C)C(=O)NCC(=O)N[C@@H](CCC(N)=O)C(=O)N[C@@H](CC(C)C)C(=O)N[C@@H](CO)C(=O)N[C@@H](C)C(=O)N[C@@H](CCCNC(=N)N)C(=O)N[C@@H](CCCCN)C(=O)N[C@@H](CC(C)C)C(=O)N[C@@H](CC(C)C)C(=O)N[C@@H](CCC(N)=O)C(=O)N[C@@H](CC(=O)O)C(=O)N[C@H](C(=O)N[C@@H](CCSC)C(=O)N[C@@H](CO)C(=O)N[C@@H](CCCNC(=N)N)C(=O)N[C@@H](CCC(N)=O)C(=O)N[C@@H](CCC(N)=O)C(=O)NCC(=O)N[C@@H](CCC(=O)O)C(=O)N[C@@H](C)C(=O)N[C@@H](CC(N)=O)C(=O)N[C@@H](CCC(N)=O)C(=O)N[C@@H](CCC(=O)O)C(=O)N[C@@H](CO)C(=O)NCC(=O)N[C@@H](CCCNC(=N)N)C(=O)O)[C@@H](C)CC)C(C)C)[C@@H](C)O` [Example IV], the “biological potency (additional testing)” value is “substantially the same biological potency as the native PGRF (1-40)”.
Still for that read-out and setting: the value for `CC[C@H](C)[C@H](NC(=O)[C@H](C)NC(=O)[C@H](CC(=O)O)NC(=O)[C@H](C)NC(=O)[C@@H](N)Cc1ccc(O)cc1)C(=O)N[C@@H](Cc1ccccc1)C(=O)N[C@H](C(=O)N[C@@H](CC(N)=O)C(=O)N[C@@H](CO)C(=O)N[C@@H](Cc1ccc(O)cc1)C(=O)N[C@@H](CCCNC(=N)N)C(=O)N[C@@H](CCCCN)C(=O)N[C@H](C(=O)N[C@@H](CC(C)C)C(=O)NCC(=O)N[C@@H](CCC(N)=O)C(=O)N[C@@H](CC(C)C)C(=O)N[C@@H](CO)C(=O)N[C@@H](C)C(=O)N[C@@H](CCCNC(=N)N)C(=O)N[C@@H](CCCCN)C(=O)N[C@@H](CC(C)C)C(=O)N[C@@H](CC(C)C)C(=O)N[C@@H](CCC(N)=O)C(=O)N[C@@H](CC(=O)O)C(=O)N[C@H](C(=O)N[C@@H](CCSC)C(=O)N[C@@H](CO)C(=O)N[C@@H](CCCNC(=N)N)C(=O)N[C@@H](CCC(N)=O)C(=O)N[C@@H](CCC(N)=O)C(=O)NCC(=O)N[C@@H](CCC(=O)O)C(=O)N[C@@H](CO)C(=O)N[C@@H](CC(N)=O)C(=O)N[C@@H](CCC(N)=O)C(=O)N[C@@H](CCC(=O)O)C(=O)N[C@@H](CCCNC(=N)N)C(=O)NCC(=O)N[C@@H](C)C(N)=O)[C@@H](C)CC)C(C)C)[C@@H](C)O` [Example V, PGRF (1-40)-amide] was “substantially twice the biological potency of the synthetic peptide tested in Example VII”; that for `CC[C@H](C)[C@H](NC(=O)[C@H](C)NC(=O)[C@H](CC(=O)O)NC(=O)[C@H](C)NC(=O)[C@@H](N)Cc1ccc(O)cc1)C(=O)N[C@@H](Cc1ccccc1)C(=O)N[C@H](C(=O)N[C@@H](CC(N)=O)C(=O)N[C@@H](CO)C(=O)N[C@@H](Cc1ccc(O)cc1)C(=O)N[C@@H](CCCNC(=N)N)C(=O)N[C@@H](CCCCN)C(=O)N[C@H](C(=O)N[C@@H](CC(C)C)C(=O)NCC(=O)N[C@@H](CCC(N)=O)C(=O)N[C@@H](CC(C)C)C(=O)N[C@@H](CO)C(=O)N[C@@H](C)C(=O)N[C@@H](CCCNC(=N)N)C(=O)N[C@@H](CCCCN)C(=O)N[C@@H](CC(C)C)C(=O)N[C@@H](CC(C)C)C(=O)N[C@@H](CCC(N)=O)C(=O)N[C@@H](CC(=O)O)C(=O)N[C@H](C(=O)N[C@@H](CCSC)C(=O)N[C@@H](CO)C(=O)N[C@@H](CCCNC(=N)N)C(=O)N[C@@H](CCC(N)=O)C(=O)N[C@@H](CCC(N)=O)C(=O)NCC(=O)N[C@@H](CCC(=O)O)C(=O)N[C@@H](CO)C(=O)N[C@@H](CC(N)=O)C(=O)N[C@@H](CCC(N)=O)C(=O)N[C@@H](CCC(=O)O)C(=O)O)[C@@H](C)CC)C(C)C)[C@@H](C)O` [Example VI, PGRF (1-37)-free acid] was “very substantial biological potency”.
Take `CC[C@H](C)[C@H](NC(=O)[C@H](C)NC(=O)[C@H](CC(=O)O)NC(=O)[C@H](C)NC(=O)[C@@H](N)Cc1ccc(O)cc1)C(=O)N[C@@H](Cc1ccccc1)C(=O)N[C@H](C(=O)N[C@@H](CC(N)=O)C(=O)N[C@@H](CO)C(=O)N[C@@H](Cc1ccc(O)cc1)C(=O)N[C@@H](CCCNC(=N)N)C(=O)N[C@@H](CCCCN)C(=O)N[C@H](C(=O)N[C@@H](CC(C)C)C(=O)NCC(=O)N[C@@H](CCC(N)=O)C(=O)N[C@@H](CC(C)C)C(=O)N[C@@H](CO)C(=O)N[C@@H](C)C(=O)N[C@@H](CCCNC(=N)N)C(=O)N[C@@H](CCCCN)C(=O)N[C@@H](CC(C)C)C(=O)N[C@@H](CC(C)C)C(=O)N[C@@H](CCC(N)=O)C(=O)N[C@@H](CC(=O)O)C(=O)N[C@H](C(=O)N[C@@H](CCSC)C(=O)N[C@@H](CO)C(=O)N[C@@H](CCCNC(=N)N)C(=O)N[C@@H](CCC(N)=O)C(=O)N[C@@H](CCC(N)=O)C(=O)NCC(=O)N[C@@H](CCC(=O)O)C(=O)N[C@@H](CO)C(=O)N[C@@H](CC(N)=O)C(=O)N[C@@H](CCC(N)=O)C(=O)N[C@@H](CCC(=O)O)C(=O)N[C@@H](CCCNC(=N)N)C(=O)NCC(=O)N[C@@H](C)C(=O)O)[C@@H](C)CC)C(C)C)[C@@H](C)O` [Native PGRF (1-40)]: the GH-releasing activity entry is “exhibit GH-releasing activity”. The “GH secretion in vitro % of controls” value (Table I, 12.5 femtomoles) is reported as 234 ± 17 % of controls. Besides, the “GH secretion in vitro % of controls” value (Table I, 25 fmoles) is on record as 351 ± 7 % of controls. Under “Table I, 50 fmoles”, the “GH secretion in vitro % of controls” value is 528 ± 16 % of controls. Also, the “GH secretion in vitro % of controls” value (Table I, 100 fmoles) is recorded as 720 ± 32 % of controls. Moreover, where the note is “Table I, 200 fmoles”, the “GH secretion in vitro % of controls” value is 748 ± 7 % of controls. The “GH secretion in vitro % of controls” value (Table III, 6.3 femtomoles) is 198 ± 5.9 % of controls. The “GH secretion in vitro % of controls” value (Table III, 12.5 femtomoles) was 270 ± 2.4 % of controls. Further, under “Table III, 25.0 femtomoles”, the “GH secretion in vitro % of controls” value is on record as 348 ± 3.4 % of controls. Also, the “GH secretion in vitro % of controls” value (Table III, 50.0 femtomoles) was 466 ± 0.9 % of controls. The “GH secretion in vitro % of controls” value (Table III, 100.0 femtomoles) was 570 ± 17 % of controls. For the same compound, the “GH secretion in vitro % of controls” value (Table III, 200.0 femtomoles) was 579 ± 2.1 % of controls. For the same compound, for the setting “Table III, 400.0 femtomoles”, the “GH secretion in vitro % of controls” value is on record as 588 ± 10 % of controls.
As for `CC[C@H](C)[C@H](NC(=O)[C@H](C)NC(=O)[C@H](CC(=O)O)NC(=O)[C@H](C)NC(=O)[C@@H](N)Cc1ccc(O)cc1)C(=O)N[C@@H](Cc1ccccc1)C(=O)N[C@H](C(=O)N[C@@H](CC(N)=O)C(=O)N[C@@H](CO)C(=O)N[C@@H](Cc1ccc(O)cc1)C(=O)N[C@@H](CCCNC(=N)N)C(=O)N[C@@H](CCCCN)C(=O)N[C@H](C(=O)N[C@@H](CC(C)C)C(=O)NCC(=O)N[C@@H](CCC(N)=O)C(=O)N[C@@H](CC(C)C)C(=O)N[C@@H](CO)C(=O)N[C@@H](C)C(=O)N[C@@H](CCCNC(=N)N)C(=O)N[C@@H](CCCCN)C(=O)N[C@@H](CC(C)C)C(=O)N[C@@H](CC(C)C)C(=O)N[C@@H](CCC(N)=O)C(=O)N[C@@H](CC(=O)O)C(=O)N[C@H](C(=O)N[C@@H](CCSC)C(=O)N[C@@H](CO)C(=O)N[C@@H](CCCNC(=N)N)C(=O)N[C@@H](CCC(N)=O)C(=O)N[C@@H](CCC(N)=O)C(=O)NCC(=O)N[C@@H](CCC(=O)O)C(=O)N[C@@H](CO)C(=O)N[C@@H](CC(N)=O)C(=O)N[C@@H](CCC(N)=O)C(=O)N[C@@H](CCC(=O)O)C(=O)N[C@@H](CCCNC(=N)N)C(=O)NCC(=O)N[C@@H](C)C(=O)N[C@@H](CCCNC(=N)N)C(=O)N[C@@H](C)C(=O)N[C@@H](CCCNC(=N)N)C(=O)N[C@@H](CC(C)C)C(N)=O)[C@@H](C)CC)C(C)C)[C@@H](C)O` [Native PGRF (1-44)], the “GH secretion in vitro % of controls” value was 289 ± 10 % of controls (Table III, 6.3 femtomoles); 391 ± 8 % of controls (Table III, 12.5 femtomoles); 479 ± 8 % of controls (Table III, 25.0 femtomoles); 561 ± 14 % of controls (Table III, 50.0 femtomoles); 599 ± 7 % of controls (Table III, 100.0 femtomoles); 606 ± 6 % of controls (Table III, 200.0 femtomoles). The “GH secretion in vitro % of controls” value (Table III, 400.0 femtomoles) is on record as 610 ± 5 % of controls. Further, the “Potency in terms of PGRF(1-40)” value (confidence limits of 1.616 and 3.131, computer calculated (BIOPROG)) is listed as 2.2261 ×PGRF(1-40). Further, where the note is “per 1 femtomole, confidence limits of 0.122 and 0.239, computer calculated (BIOPROG)”, the “Potency in terms of GRF Reference Standard” value is listed as 0.1696 unit.
On to `CC[C@H](C)[C@H](NC(=O)[C@H](C)NC(=O)[C@H](CC(=O)O)NC(=O)[C@H](C)NC(=O)[C@@H](N)Cc1ccc(O)cc1)C(=O)N[C@@H](Cc1ccccc1)C(=O)N[C@H](C(=O)N[C@@H](CC(N)=O)C(=O)N[C@@H](CO)C(=O)N[C@@H](Cc1ccc(O)cc1)C(=O)N[C@@H](CCCNC(=N)N)C(=O)N[C@@H](CCCCN)C(=O)N[C@H](C(=O)N[C@@H](CC(C)C)C(=O)NCC(=O)N[C@@H](CCC(N)=O)C(=O)N[C@@H](CC(C)C)C(=O)N[C@@H](CO)C(=O)N[C@@H](C)C(=O)N[C@@H](CCCNC(=N)N)C(=O)N[C@@H](CCCCN)C(=O)N[C@@H](CC(C)C)C(=O)N[C@@H](CC(C)C)C(=O)N[C@@H](CCC(N)=O)C(=O)N[C@@H](CC(=O)O)C(=O)N[C@H](C(=O)N[C@@H](CCSC)C(=O)N[C@@H](CO)C(=O)N[C@@H](CCCNC(=N)N)C(=O)N[C@@H](CCC(N)=O)C(=O)N[C@@H](CCC(N)=O)C(=O)NCC(=O)N[C@@H](CCC(=O)O)C(=O)N[C@@H](CO)C(=O)N[C@@H](CC(N)=O)C(=O)N[C@@H](CCC(N)=O)C(=O)N[C@@H](CCC(=O)O)C(=O)O)[C@@H](C)CC)C(C)C)[C@@H](C)O` [PGRF(1-37) free acid], for which the GH-releasing activity result is recorded as “exhibit GH-releasing activity”.
